# According to PubChem BioAssay (NCI):
#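 Results reflect a 48-hour exposure of cells in 96-well plates to compound at five concentrations. GI50 marks 50% less growth. Definition used: TGI = concentration required for complete inhibition of growth.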
# Experiments:
# Assay in all cases: NCI tumour cell line growth inhibition, 48 h
# [1] = system: NCI-H226 lung
# [2] = system: NCI-H23 lung
# [3] = system: NCI-H460 lung
# [4] = system: NCI-H522 lung
# [5] = system: OVCAR-3 ovarian
# [6] = system: OVCAR-4 ovarian
# [7] = system: OVCAR-5 ovarian
# [8] = system: OVCAR-8 ovarian
# [9] = system: RPMI-8226 leukemia
# [10] = system: RXF 393 renal
# [11] = system: SF-268 CNS
# [12] = system: SF-295 CNS
# [13] = system: SF-539 CNS
# [14] = system: SK-MEL-2 melanoma
# [15] = system: SK-MEL-28 melanoma
# [16] = system: SK-MEL-5 melanoma
# [17] = system: SK-OV-3 ovarian
# [18] = system: SN12C renal
# [19] = system: SNB-19 CNS
# [20] = system: SNB-75 CNS
# [21] = system: SR leukemia
# [22] = system: SW-620 colon
# [23] = system: T-47D breast
# [24] = system: TK-10 renal
# [25] = system: U251 CNS
# [26] = system: UACC-257 melanoma
# [27] = system: UACC-62 melanoma
# [28] = system: UO-31 renal
compound,measurement,setting,value
O=C(Nc1ccc(Oc2cccc(F)c2)c(Cl)c1)c1cnccn1,GI50,[1],2.6 µM
same,TGI,[1],> 50 µM
same,GI50,[2],3 µM
same,TGI,[2],> 50 µM
same,GI50,[3],1.79 µM
same,TGI,[3],> 50 µM
same,GI50,[4],1.19 µM
same,TGI,[4],> 50 µM
same,GI50,[5],1 µM
same,TGI,[5],5.15 µM
same,GI50,[6],36.6 µM
same,TGI,[6],> 50 µM
same,GI50,[7],4.27 µM
same,TGI,[7],> 50 µM
same,GI50,[8],2.51 µM
same,TGI,[8],> 50 µM
same,GI50,[9],1.79 µM
same,TGI,[9],> 50 µM
same,GI50,[10],1.23 µM
same,TGI,[10],3.72 µM
same,GI50,[11],7.81 µM
same,TGI,[11],> 50 µM
same,GI50,[12],1.56 µM
same,TGI,[12],> 50 µM
same,GI50,[13],1.35 µM
same,TGI,[13],> 50 µM
same,GI50,[14],2.15 µM
same,TGI,[14],> 50 µM
same,GI50,[15],28.6 µM
same,TGI,[15],> 50 µM
same,GI50,[16],1.79 µM
same,TGI,[16],> 50 µM
same,GI50,[17],10.8 µM
same,TGI,[17],> 50 µM
same,GI50,[18],3.6 µM
same,TGI,[18],> 50 µM
same,GI50,[19],2.74 µM
same,TGI,[19],> 50 µM
same,GI50,[20],1.06 µM
same,TGI,[20],4.22 µM
same,GI50,[21],0.242 µM
same,TGI,[21],> 50 µM
same,GI50,[22],0.366 µM
same,TGI,[22],> 50 µM
same,GI50,[23],1.33 µM
same,TGI,[23],> 50 µM
same,GI50,[24],3.75 µM
same,TGI,[24],> 50 µM
same,GI50,[25],1.51 µM
same,TGI,[25],> 50 µM
same,GI50,[26],4.53 µM
same,TGI,[26],> 50 µM
same,GI50,[27],2.72 µM
same,TGI,[27],> 50 µM
same,GI50,[28],2.93 µM
same,TGI,[28],> 50 µM
